# US20220008452A1, “COMPOSITIONS AND METHODS FOR TREATING OR PREVENTING NASH, NAFLD, DIABETES, ATHEROSCLEROSIS, AND/OR OBESITY” (YALE UNIVERSITY, priority 2018, published 2022)
# Legend:
# [1] = system: MEST; assay: Relative mRNA expression of MEST by RT-PCR in endothelial cells; assay type: cell-based, human
# Procedure: (§1) Human umbilical vein endothelial cells (HUVECs) were cultured in EBM-2 (Lonza) and THP-1 monocytes (ATCC) were grown in RPM. Human coronary microvascular endothelial cells (HCMECs) (Lonza) were cultured in EBM (Lonza). For experimental treatments, HUVECs and HMVECs (passages 3 to 8) were grown to 70-90% confluence. Simvastatin (Sigma) was activated to its active form as previously described. Atorvastatin (Sigma) was solubilized in DMSO and used at 10 μM concentration. Transient transfection of plasmids was performed with Fugene HD (Promega) according to the manufacturer's instructions. For small interfering RNA (Invitrogen) and miR-335-5p mimic (Dharmacon) transfections, each oligonucleotide formulation and respective controls (control siRNA: 12935112 (Invitrogen), miRNA mimic control: 0010000105 (Dharmacon), 50 nM) were complexed with Lipofectamine RNAiMAX (Invitrogen) according to the manufacturer's instructions.
# (§2) Total RNA was extracted with the miRNeasy Mini kit (Qiagen). […] RT-PCR was performed with TaqMan probes for genes and miRNAs (ThermoFisher), or SYBR green assays for genes (Bio-Rad). All miRNA data were normalized to the internal control small RNAs U6 for human samples. For the mRNA samples, ribosomal 18S was used as an internal control. Individual RT-PCRs were performed on a […] (Bio-Rad) according to the manufacturer's instructions.
# [2] = system: CHFR; assay: Relative mRNA and protein expression of CHFR (quantitative PCR, western blot)
# [3] = system: miR-335-5p; assay: Relative expression of miR-335-5p by RT-PCR in endothelial cells; assay type: cell-based, human
# Procedure: as §1, §2
# [4] = system: miR335; assay: miR335 inhibitor given to mice on 60% high fat diet; assay type: in vivo; details: 60% HFD, 5 mg/kg IP, vs control inhibitor
# Procedure: FIG. 14 is a schematic outlining time course of an experiment comparing animals administered miR335 inhibitors to control, on a high fat diet. The mice were injected 5 mg/kg of miR335 inhibitor or its control twice a week for 4 weeks. Nonproprietary in vivo grade miRNA inhibitor purchased from Qiagen/Exiqon. Sequence: […] (SEQ ID NO:3; 100% complementary to […]).
# The mice are subject to 6 weeks of 60% HFD. 5 mg/kg of miR335 inhibitor and its control was given to mice by IP injection. 2 weeks after, HFD was started.
# The mir335−/− mice and Apoe−/− mice have been previously described. All animals were maintained on a C57BL/6 background. For mice fed a high-fat diet, mice were administered a 60% fat diet (TD-06414, Envigo) or 40% fat diet with 1.25% added cholesterol (DI2108C, Research Diet) for designated times before tissue and serum were collected.
# Frozen 10-μm cryosections from the liver were washed with distilled water for 10 min. After the washing, sections were put into Eosin solution for 2 min. After rinsing with distilled water, sections were put into Hematoxylin solution for 5 min. After washing with distilled water for 15 min, the slides were mounted with DPX mountant (Sigma). Sections were imaged using bright-field microscopy.
# Plasma was assessed for alanine aminotransferase (ALT) (Pointe Scientific) following the manufacturer's instructions. Briefly, 20 μl of each plasma sample was added in the 200 μl of the reagent and incubated at 37° C. After 1 min incubation, samples were put on the plate and the plate was read at 340 nm with a microplate reader (BioTek Synergy 2). The ALT values were calculated according to the manufacturer's instructions.
Compound,MEST expression ([1]; HCMECs),MEST expression ([1]; HUVECs),CHFR mRNA and protein expression ([2]; HCMECs),CHFR mRNA and protein expression ([2]; HUVECs),miR-335 expression ([3]; HCMECs),miR-335 expression ([3]; HUVECs),elevation in serum ALT associated with high fat diet [4],fat accumulation in the liver [4],liver histology [4],liver weight [4],weight gain associated with a high fat diet [4]
CC(C)c1c(C(=O)Nc2ccccc2)c(-c2ccccc2)c(-c2ccc(F)cc2)n1CC[C@@H](O)C[C@@H](O)CC(=O)O [atorvastatin],significantly downregulated,significantly downregulated,significantly upregulated,significantly upregulated,significant decrease,significant decrease,,,,,
"miR335 inhibitor: Nonproprietary in vivo grade miRNA inhibitor purchased from Qiagen/Exiqon; sequence ACATTTTTCGTTATTGCTCTTGA (SEQ ID NO:3), complementary to miR-335-5p (in vivo grade miRNA inhibitor from Exiqon, chemistry not given here, further chemistry not given here)",,,,,,,attenuated,attenuated,preserved,decreased,suppressed
